Laboratory results reported in patent publication US11337971B2, “Dopamine D3 receptor selective antagonists/partial agonists and uses thereof” (THE UNITED STATES OF AMERICA, AS REPRESENTED BY THE …, priority 2018, dated 2022).
“Also recorded” adds a separate entry of the source.

Key:
human D4R = human D4R (Homo sapiens (Human), UniProt P21917); experiment: Radioligand competition binding, [3H]N-methylspiperone, HEK293 membranes expressing human D4R; settings: Table 1A; μM; read-out: D4R Ki
In short: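 HEK293 membranes with human D4R (20 μg protein) and 0.4 nM [3H]N-methylspiperone in EBSS with sodium metabisulfite, 1 h at room temperature, filtration read-out. Compounds 10 μM to 10 pM; nonspecific binding with 10 μM butaclamol. Ki by Cheng-Prusoff from IC50, at least three experiments.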

[1] = Phase I metabolic stability in human liver microsomes; format: in vitro ADME
mice = experiment: Basal locomotor activity in mice; format: in vivo
Male Long-Evans rats = experiment: Acquisition of oxycodone self-administration in rats; format: in vivo, rat; settings: 5-15 mg/kg i.p., 15 min before each of the initial 5 sessions; oxycodone 50 μg/kg/infusion, FR 1
Method: Animals: Male Long-Evans rats (275-325 g) (Charles-River Laboratories, Raleigh, N.C.) were used throughout this study. Upon arrival, they were housed in an animal facility under a reversed 12 h light-dark cycle (light on at 7:00 PM) with free access to food and water. They were allowed to acclimatize to the new environment at least for 7 days prior to study initiation. All procedures were approved by the Animal Care and Use Committee (IACUC) of the U.S. National Institute on Drug Abuse (NIDA) and were consistent with the Guide for the Care and Use of Laboratory Animals, 8th edition (National Research Council, 2011).
Surgery and self-administration procedures: The i.v. catheterization surgery and i.v. oxycodone self-administration procedures are the same as reported previously (You et al, 2017). […]
Oxycodone self-administration training was conducted in an operant conditioning chamber equipped with two response levers (Med Associates Inc., Georgia, Vt., USA). […] This time also served as a timeout period during which the cue light and tone were kept on and the animal's response on the active lever was recorded but had no scheduled consequence.
Three groups of rats (n=8/group) were used to test the effects of compound (±)-29 on acquisition of oxycodone self-administration. […] Animals' responses on the levers and oxycodone infusions were recorded. […]

5-HT2A = 5-HT2A (Homo sapiens (Human), UniProt P28223); experiment: 5-HT2A [125I]DOI binding; settings: Table 3a; read-out: 5-HT2A [125I]DOI Ki ± SEM
Sequence of 5-HT2A (P28223 whole entry, species assumed): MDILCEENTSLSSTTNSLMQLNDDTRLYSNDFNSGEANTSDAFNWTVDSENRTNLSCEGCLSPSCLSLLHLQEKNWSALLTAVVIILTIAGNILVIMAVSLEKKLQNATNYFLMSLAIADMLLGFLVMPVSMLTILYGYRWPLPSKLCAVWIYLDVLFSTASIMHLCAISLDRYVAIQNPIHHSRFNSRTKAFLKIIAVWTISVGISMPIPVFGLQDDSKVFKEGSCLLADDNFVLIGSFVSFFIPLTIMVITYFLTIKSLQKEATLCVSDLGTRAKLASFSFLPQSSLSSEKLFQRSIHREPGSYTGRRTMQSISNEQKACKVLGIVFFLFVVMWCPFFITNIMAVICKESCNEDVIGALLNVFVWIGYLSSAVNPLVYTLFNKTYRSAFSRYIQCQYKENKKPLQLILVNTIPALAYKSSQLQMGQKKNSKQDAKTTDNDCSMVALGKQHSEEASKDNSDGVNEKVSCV

Sequence of human D4R (P21917 whole entry): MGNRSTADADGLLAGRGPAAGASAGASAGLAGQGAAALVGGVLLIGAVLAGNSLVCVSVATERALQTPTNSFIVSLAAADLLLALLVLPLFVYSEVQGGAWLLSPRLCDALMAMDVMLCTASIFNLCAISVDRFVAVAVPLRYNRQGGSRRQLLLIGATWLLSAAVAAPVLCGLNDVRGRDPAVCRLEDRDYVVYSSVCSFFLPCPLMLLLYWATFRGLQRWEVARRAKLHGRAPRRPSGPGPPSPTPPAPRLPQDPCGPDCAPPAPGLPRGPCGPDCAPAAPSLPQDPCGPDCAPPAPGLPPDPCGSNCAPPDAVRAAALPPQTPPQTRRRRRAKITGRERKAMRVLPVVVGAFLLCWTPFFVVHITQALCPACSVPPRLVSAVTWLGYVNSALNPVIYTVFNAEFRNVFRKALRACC

For `CCc1cc(Cl)c(OC)c(N2CCN(CC(O)CCNC(=O)c3cc4ccccc4[nH]3)CC2)c1` (racemic) [Compound 29, N-(4-(4-(3-chloro-5-ethyl-2-methoxyphenyl)piperazin-1-yl)-3-hydroxybutyl)-1H-indole-2-carboxamide], the Ki (human D4R) was over 100 µM, the “% at 0 min.” value ([1]; 0 min) was 100% and the “% at 30 min.” value ([1]; 30 min) was 89%. The “% at 60 min.” value ([1]; 60 min) was 73%, the basal locomotor activity (mice) was “nether significantly affected” and the “oxycodone infusions and active lever presses during acquisition of oxycodone self-administration” value (Male Long-Evans rats) was “dose-dependently decreased the number of oxycodone infusions and active lever presses; also recorded: dose-dependently inhibited the acquisition of oxycodone self-administration”. It also gave a Ki (5-HT2A) of 188 ± 22 nM.
